Here are results for three compounds from publication PMC6740044 (ACS Omega, 2019).

Bridge positions count the residues as written; N and C are the ends. Peptide text beside a SMILES is read from it.

For orientation: Kd means the constant that tells how readily two partners part at equilibrium. Low readings indicate tighter binding, high ones weaker binding.

Test [1] concerns the target Herceptin (human IgG1) (human). Kind of test: SPR. Background: Surface plasmon resonance follows binding to a sensor surface in real time, without labels.
The target of test [2] is Herceptin (human IgG1) (human). Kind of test: ITC. On the technique in general: ITC needs no label: the signal is the heat of the interaction.
The next test addresses Herceptin (human IgG1) (Homo sapiens, UniProt P01857). Kind of test: Isothermal titration calorimetry. Particulars: ITC, 25 °C, single-site binding model, measured three times.

Herceptin (human IgG1), sequence (P01857 104-328): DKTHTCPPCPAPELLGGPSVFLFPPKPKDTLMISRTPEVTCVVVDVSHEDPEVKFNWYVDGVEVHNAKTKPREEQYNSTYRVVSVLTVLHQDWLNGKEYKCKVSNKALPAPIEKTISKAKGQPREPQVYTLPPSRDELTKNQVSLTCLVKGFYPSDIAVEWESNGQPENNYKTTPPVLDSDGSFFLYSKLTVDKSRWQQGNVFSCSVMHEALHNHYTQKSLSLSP

In turn, 15-Lys8Phe (peptide) displayed a Kd in test [1] of 40 nM.

Turning to 15-Lys8Tle (peptide), in test [2], the Kd came to 200 nM.

With `CC(=O)N[C@@H](CC(=O)O)C(=O)N[C@H]1CSSC[C@@H](C(=O)N[C@H](C(=O)N[C@@H](Cc2ccccc2)C(=O)N[C@@H](Cc2c[nH]cn2)C(N)=O)[C@@H](C)O)NC(=O)[C@H](Cc2c[nH]c3ccccc23)NC(=O)[C@H](C(C)C)NC(=O)[C@H](CC(C)C)NC(=O)[C@H](CCC(=O)O)NC(=O)CNC(=O)[C@H](CCCCN)NC(=O)[C@H](Cc2c[nH]cn2)NC(=O)[C@H](Cc2ccc(O)cc2)NC(=O)[C@H](C)NC1=O` [15-IgBP] (Ac-DCAYHKGELVWCTFH-NH2; disulfide 2-12), on Herceptin (human IgG1), the ΔG result is given as “–9.1 ± 0.0 kcal/mol”, the ΔH result was “–13 ± 0 kcal/mol” and the “–TΔS” value was 3.5 ± 0.1 kcal/mol.
